28 compounds from patent US11554171B2, “Compounds and methods for the targeted degradation of bromodomain-containing proteins” (Arvinas Operations, Inc., priority 2015, dated 2023) can be followed below.

In the assay the test system is c-myc in 22RV-1 cells. Kind of assay: Human c-myc ELISA assay. The format is cell-based. Particulars: Homo sapiens; for Emax: 22Rv1, 18 h, read-out: Degradation of BRD4: Maximum inhibition (%) c-Myc ELISA in 22RV1 cells; for DC50: 22Rv1, read-out: Degradation of BRD4: DC50 (uM) c-Myc ELISA in 22RV1 cells. Put shortly: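 22RV-1 cells treated 18 h with 8-point 1:3 compound dilutions (final top 300 nM or 1 μM, 0.1% DMSO). Cells lysed in RIPA buffer with protease/phosphatase inhibitors, and c-myc protein in cleared lysate quantified by ELISA against a standard curve. DC50 reported for c-myc suppression.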

Structures are written as SMILES.

Take `Cc1ncsc1-c1ccc(CNC(=O)[C@@H]2C[C@@H](O)CN2C(=O)[C@@H](c2cc(OCCN3CCC(NC(=O)C[C@@H]4N=C(c5ccc(Cl)cc5)c5c(sc(C)c5C)-n5c(C)nnc54)CC3)no2)C(C)C)cc1` [Example 314]: the Emax came out at 87% and the DC50 was less than 0.01 µM.

Regarding `Cc1ncsc1-c1ccc(CNC(=O)[C@@H]2C[C@@H](O)CN2C(=O)[C@H](c2cc(OCCN3CCC(NC(=O)C[C@@H]4N=C(c5ccc(Cl)cc5)c5c(sc(C)c5C)-n5c(C)nnc54)CC3)no2)C(C)C)cc1` [Example 315], the Emax worked out at 11.4% and the DC50 is more than 1 µM.

As to `Cc1ncsc1-c1ccc(CNC(=O)[C@@H]2C[C@@H](O)CN2C(=O)[C@H](c2cc(OCCO[C@H]3C[C@@H](NC(=O)C[C@@H]4N=C(c5ccc(Cl)cc5)c5c(sc(C)c5C)-n5c(C)nnc54)C3)no2)C(C)C)cc1` [Example 316], the Emax was 71.4% and the DC50 was in the range of 0.01 to 0.1 µM.

Regarding `Cc1ncsc1-c1ccc(CNC(=O)[C@@H]2C[C@@H](O)CN2C(=O)[C@@H](c2cc(OCCO[C@H]3C[C@@H](NC(=O)C[C@@H]4N=C(c5ccc(Cl)cc5)c5c(sc(C)c5C)-n5c(C)nnc54)C3)no2)C(C)C)cc1` [Example 317], the Emax turned out to be 89.9% and the DC50 was less than 0.01 µM.

As to `Cc1ncsc1-c1ccc([C@H](C)NC(=O)[C@@H]2C[C@@H](O)CN2C(=O)[C@@H](NC(=O)CCOCCN2CCN(C(=O)C[C@@H]3N=C(c4ccc(Cl)cc4)c4c(sc(C)c4C)-n4c(C)nnc43)CC2)C(C)(C)C)cc1` [Example 318], the Emax was 79% and the 50% degradation concentration (DC50) was in the range of 0.1 to 1 µM.

As for `Cc1ncsc1-c1ccc([C@H](C)NC(=O)[C@@H]2C[C@@H](O)CN2C(=O)[C@@H](NC(=O)CCCCC(=O)N2CCN(C(=O)C[C@@H]3N=C(c4ccc(Cl)cc4)c4c(sc(C)c4C)-n4c(C)nnc43)CC2)C(C)(C)C)cc1` [Example 319], the Emax is 78.5% and the DC50 lay in the range of 0.1 to 1 µM.

As for `Cc1ncsc1-c1ccc([C@H](C)NC(=O)[C@@H]2C[C@@H](O)CN2C(=O)[C@H](C(C)C)n2cc(-c3ccc(N4CCN(C(=O)C[C@@H]5N=C(c6ccc(Cl)cc6)c6c(sc(C)c6C)-n6c(C)nnc65)CC4)nc3)cn2)cc1` [Example 320], the Emax amounted to 97.8% and the DC50 was less than 0.01 µM.

For `Cc1ncsc1-c1ccc([C@H](C)NC(=O)[C@@H]2C[C@@H](O)CN2C(=O)[C@@H](C(C)C)n2cc(-c3ccc(N4CCN(C(=O)C[C@@H]5N=C(c6ccc(Cl)cc6)c6c(sc(C)c6C)-n6c(C)nnc65)CC4)nc3)cn2)cc1` [Example 321], the Emax came out at 56% and the DC50 is 0.1 to 1 µM.

Turning to `Cc1ncsc1-c1ccc([C@H](C)NC(=O)[C@@H]2C[C@@H](O)CN2C(=O)[C@H](C(C)C)n2cc(-c3ccnc(N4CCN(C(=O)C[C@@H]5N=C(c6ccc(Cl)cc6)c6c(sc(C)c6C)-n6c(C)nnc65)CC4)c3)cn2)cc1` [Example 322], the Emax is 92.6% and the half-maximal degradation concentration (DC50) was less than 0.01 µM.

Turning to `Cc1ncsc1-c1ccc([C@H](C)NC(=O)[C@@H]2C[C@@H](O)CN2C(=O)[C@@H](C(C)C)n2cc(-c3ccnc(N4CCN(C(=O)C[C@@H]5N=C(c6ccc(Cl)cc6)c6c(sc(C)c6C)-n6c(C)nnc65)CC4)c3)cn2)cc1` [Example 323], the Emax came to 43% and the half-maximal degradation concentration (DC50) was more than 1 µM.

Take `Cc1ncsc1-c1ccc(CNC(=O)[C@@H]2C[C@@H](O)CN2C(=O)[C@H](c2cc(Oc3ccc(O[C@H]4C[C@@H](NC(=O)C[C@@H]5N=C(c6ccc(Cl)cc6)c6c(sc(C)c6C)-n6c(C)nnc65)C4)nc3)no2)C(C)C)cc1` [Example 324]: the Emax amounted to 31.6% and the half-maximal degradation concentration (DC50) was more than 1 µM.

For the compound `Cc1ncsc1-c1ccc(CNC(=O)[C@@H]2C[C@@H](O)CN2C(=O)[C@@H](c2cc(Oc3ccc(O[C@H]4C[C@@H](NC(=O)C[C@@H]5N=C(c6ccc(Cl)cc6)c6c(sc(C)c6C)-n6c(C)nnc65)C4)nc3)no2)C(C)C)cc1` [Example 325], the Emax stood at 81.5% and the half-maximal degradation concentration (DC50) was in the range of 0.01 to 0.1 µM.

As for `Cc1ncsc1-c1ccc([C@H](C)NC(=O)[C@@H]2C[C@@H](O)CN2C(=O)[C@@H](NC(=O)Cc2cccc(C(=O)N3CCN(C(=O)C[C@@H]4N=C(c5ccc(Cl)cc5)c5c(sc(C)c5C)-n5c(C)nnc54)CC3)c2)C(C)(C)C)cc1` [Example 326], the Emax is 92% and the half-maximal degradation concentration (DC50) was 0.01 to 0.1 µM.

As for `Cc1ncsc1-c1ccc([C@H](C)NC(=O)[C@@H]2C[C@@H](O)CN2C(=O)[C@@H](NC(=O)COc2ccnc(N3CCN(C(=O)C[C@@H]4N=C(c5ccc(Cl)cc5)c5c(sc(C)c5C)-n5c(C)nnc54)CC3)c2)C(C)(C)C)cc1` [Example 327, (2S,4R)-1-[(2S)-2-(2-{[2-(4-{2-[(9S)-7-(4-chlorophenyl)-4,5,13-trimethyl-3-thia-1,8,11,12-tetraazatricyclo[8.3.0.0^2,^6]trideca-2(6),4,7,10,12-pentaen-9-yl]acetyl}piperazin-1-yl)pyridin-4-yl]oxy}acetamido)-3,3-dimethylbutanoyl]-4-hydroxy-N-[(1S)-1-[4-(4-methyl-1,3-thiazol-5-yl)phenyl]ethyl]pyrrolidine-2-carboxamide], the Emax was found to be 96% and the DC50 is less than 0.01 µM.

`Cc1ncsc1-c1ccc([C@H](C)NC(=O)[C@@H]2C[C@@H](O)CN2C(=O)[C@@H](NC(=O)COC[C@H](O)CN2CCN(C(=O)C[C@@H]3N=C(c4ccc(Cl)cc4)c4c(sc(C)c4C)-n4c(C)nnc43)CC2)C(C)(C)C)cc1` [Example 328]: the Emax came out at 61% and the 50% degradation concentration (DC50) was 0.1 to 1 µM.

For the compound `Cc1ncsc1-c1ccc([C@H](C)NC(=O)[C@@H]2C[C@@H](O)CN2C(=O)[C@@H](NC(=O)COC[C@@H](O)CN2CCN(C(=O)C[C@@H]3N=C(c4ccc(Cl)cc4)c4c(sc(C)c4C)-n4c(C)nnc43)CC2)C(C)(C)C)cc1` [Example 329], the Emax is less than 5% and the DC50 was more than 1 µM.

`Cc1ncsc1-c1ccc([C@H](C)NC(=O)[C@@H]2C[C@@H](O)CN2C(=O)[C@@H](NC(=O)COc2ccnc(N3CCN(C(=O)C[C@@H]4N=C(c5ccc(Cl)cc5)c5c(sc(C)c5C)-n5c(C)nnc54)CC3)n2)C(C)(C)C)cc1` [Example 330]: the Emax stood at 89% and the DC50 lay within 0.01 to 0.1 µM.

As to `Cc1ncsc1-c1ccc([C@H](C)NC(=O)[C@@H]2C[C@@H](O)CN2C(=O)[C@@H](NC(=O)COc2nccc(N3CCN(C(=O)C[C@@H]4N=C(c5ccc(Cl)cc5)c5c(sc(C)c5C)-n5c(C)nnc54)CC3)n2)C(C)(C)C)cc1` [Example 331], the Emax came to 81.5% and the half-maximal degradation concentration (DC50) is 0.1 to 1 µM.

Regarding `Cc1ncsc1-c1ccc([C@H](C)NC(=O)[C@H]2C[C@H](O)CN2C(=O)[C@@H](NC(=O)c2cc3cc(O[C@H]4C[C@@H](NC(=O)C[C@@H]5N=C(c6ccc(Cl)cc6)c6c(sc(C)c6C)-n6c(C)nnc65)C4)ccc3o2)C(C)(C)C)cc1` [Example 332], the Emax worked out at 61% and the 50% degradation concentration (DC50) lay within 0.1 to 1 µM.

Regarding `Cc1ncsc1-c1ccc([C@H](C)NC(=O)[C@@H]2C[C@@H](O)CN2C(=O)[C@@H](NC(=O)CN2CCC(N3CCCN(C(=O)C[C@@H]4N=C(c5ccc(Cl)cc5)c5c(sc(C)c5C)-n5c(C)nnc54)CC3)CC2)C(C)(C)C)cc1` [Example 333], the Emax is 88% and the DC50 was 0.01 to 0.1 µM.

Consider `Cc1ncsc1-c1ccc([C@H](C)NC(=O)[C@@H]2C[C@@H](O)CN2C(=O)[C@@H](NC(=O)CN2CCC(C(=O)N3CCN(C(=O)C[C@@H]4N=C(c5ccc(Cl)cc5)c5c(sc(C)c5C)-n5c(C)nnc54)CC3)CC2)C(C)(C)C)cc1` [Example 334], for which the Emax is 97% and the 50% degradation concentration (DC50) was less than 0.01 µM.

On to `Cc1ncsc1-c1ccc([C@H](C)NC(=O)[C@@H]2C[C@@H](O)CN2C(=O)[C@@H](NC(=O)CN2CCC(N3CCN(C(=O)C[C@@H]4N=C(c5ccc(Cl)cc5)c5c(sc(C)c5C)-n5c(C)nnc54)CC3)CC2)C(C)(C)C)cc1` [Example 335], for which the Emax was 97% and the DC50 was less than 0.01 µM.

Consider `Cc1ncsc1-c1ccc([C@H](C)NC(=O)[C@@H]2C[C@@H](O)CN2C(=O)[C@@H](NC(=O)c2cc3cc(O[C@H]4C[C@@H](NC(=O)C[C@@H]5N=C(c6ccc(Cl)cc6)c6c(sc(C)c6C)-n6c(C)nnc65)C4)ccc3o2)C(C)C)cc1` [Example 336], for which the Emax amounted to 98% and the DC50 is less than 0.01 µM.

Take `Cc1ncsc1-c1ccc([C@H](C)NC(=O)[C@@H]2C[C@@H](O)CN2C(=O)[C@@H](NC(=O)Cc2ccc(-c3cn(CCNC(=O)C[C@@H]4N=C(c5ccc(Cl)cc5)c5c(sc(C)c5C)-n5c(C)nnc54)cn3)cc2)C(C)(C)C)cc1` [Example 337]: the Emax turned out to be 96.4% and the DC50 is less than 0.01 µM.

Turning to `Cc1ncsc1-c1ccc([C@H](C)NC(=O)[C@@H]2C[C@@H](OC(=O)[C@@H](N)C(C)C)CN2C(=O)[C@@H](NC(=O)c2cc3cc(O[C@H]4C[C@@H](NC(=O)C[C@@H]5N=C(c6ccc(Cl)cc6)c6c(sc(C)c6C)-n6c(C)nnc65)C4)ccc3o2)C(C)(C)C)cc1` [Example 338], the Emax turned out to be 100% and the DC50 is less than 0.01 µM.

Take `Cc1ncsc1-c1ccc([C@H](C)NC(=O)[C@@H]2C[C@@H](OC(=O)CCN)CN2C(=O)[C@@H](NC(=O)c2cc3cc(O[C@H]4C[C@@H](NC(=O)C[C@@H]5N=C(c6ccc(Cl)cc6)c6c(sc(C)c6C)-n6c(C)nnc65)C4)ccc3o2)C(C)(C)C)cc1` [Example 339]: the Emax amounted to 97% and the DC50 was less than 0.01 µM.

As to `Cc1ncsc1-c1ccc([C@H](C)NC(=O)[C@@H]2C[C@@H](O)CN2C(=O)[C@@H](NC(=O)Cc2ccc(-c3cn([C@H](C)CNC(=O)C[C@@H]4N=C(c5ccc(Cl)cc5)c5c(sc(C)c5C)-n5c(C)nnc54)cn3)cc2)C(C)(C)C)cc1` [Example 340], the Emax amounted to 92.2% and the 50% degradation concentration (DC50) fell in the range of 0.01 to 0.1 µM.

Take `Cc1ncsc1-c1ccc([C@H](C)NC(=O)[C@@H]2C[C@@H](O)CN2C(=O)[C@@H](NC(=O)Cc2ccc(-c3cn([C@@H](C)CNC(=O)C[C@@H]4N=C(c5ccc(Cl)cc5)c5c(sc(C)c5C)-n5c(C)nnc54)cn3)cc2)C(C)(C)C)cc1` [Example 341]: the Emax was found to be 98.5% and the half-maximal degradation concentration (DC50) is less than 0.01 µM.
